Data set [1] in a line: Particle size distribution of spray dried granisetron fine powder by Malvern Mastersizer. The note with it: typical particle size distribution.
Data set [2] is described as follows: Solubility of granisetron in pMDI medium. It counts as physicochemical. How it is done:
The solubility of granisetron was measured in a pMDI medium of HFA 134 as well as a mixture of HFA 134 and ethanol.

A short description of data set [3]: Particle size distribution of jet milled granisetron fine powder by Malvern Spraytec.

Each structure is given as a SMILES string. ≈ marks a conversion by molar mass, not a printed value. Where “and” joins values, the source holds several entries; their conditions need not be identical. Equal entries are not always repeated. Where two headings read alike, the source gives them in different places.

A word on the solubility: it is the dissolved amount per volume that the medium holds.

Regarding `CN1C2CCCC1CC(NC(=O)c1nn(C)c3ccccc13)C2` (stereo not shown) [Spray Dried Granisetron Fine Powder, granisetron], in data set [1], the “Cumulative % on <9 μm” value was 98.0%, the D10 came to 1.01 μm, the D50 came out at 2.33 μm and the D90 was 5.34 μm.
For the molecule `CN1C2CCCC1CC(NC(=O)c1nn(C)c3ccccc13)C2` (stereo not shown) [granisetron], the “Solubility, single determinations” value is 74.29 µg/mL and 97.99 µg/mL and 73.93 µg/mL in data set [2] (HFA 134a with Ethanol (9:1), 10 days); 84.173 µg/mL and 81.496 µg/mL in data set [2] (HFA 134a with Ethanol (9:1), ~24 Hours); 14.84 µg/mL and 10.26 µg/mL and 11.51 µg/mL and 15.77 µg/mL in data set [2] (HFA 134a, 10 days). In addition, the Solubility in data set [2] (HFA 134a, 24 hours, converted with gravity 1.21 g/mL) came out at 0.00018 % w/w; in data set [2] (HFA 134a, 10 days, converted with gravity 1.21 g/mL), 0.00108 % w/w; in data set [2] (HFA 134 and ethanol, 24 hours), 0.00706 % w/w; in data set [2] (HFA 134 and ethanol, 10 days), 0.00681 % w/w; in data set [2] (pMDI medium (HFA 134a propellant), organic solvent or mixture, HFA 134a, ~24 Hours, read-out: Solubility, Average (RSD)), 2.17 µg/mL (≈ 6.95 µM); in data set [2] (pMDI medium (HFA 134a with ethanol), organic solvent or mixture, HFA 134a with Ethanol (9:1), ~24 Hours, read-out: Solubility, Average (RSD)), 85.5 µg/mL (≈ 274 µM). Also, in data set [2] (pMDI medium (HFA 134a with ethanol), organic solvent or mixture, HFA 134a with Ethanol (9:1), ~24 Hours, read-out: Solubility, single determinations), the Solubility came out at 90.8 µg/mL (≈ 291 µM). In addition, the solubility at 10 days in data set [2] (pMDI medium (HFA 134a propellant), organic solvent or mixture, HFA 134a, 10 days, read-out: Solubility, Average (RSD)) turned out to be 13.1 µg/mL (≈ 42 µM); in data set [2] (pMDI medium (HFA 134a propellant), organic solvent or mixture, HFA 134a, 10 days, read-out: Solubility, single determinations), 13.2 µg/mL (≈ 42.1 µM); in data set [2] (pMDI medium (HFA 134a with ethanol), organic solvent or mixture, HFA 134a with Ethanol (9:1), 10 days, read-out: Solubility, Average (RSD)), 82.4 µg/mL (≈ 264 µM); in data set [2] (pMDI medium (HFA 134a with ethanol), organic solvent or mixture, HFA 134a with Ethanol (9:1), 10 days, read-out: Solubility, single determinations) it was 79.9 µg/mL (≈ 256 µM).
In the case of `CN1C2CCCC1CC(NC(=O)c1nn(C)c3ccccc13)C2.Cl` (stereo not shown) [jet milled granisetron, Granisetron HCl], the “mass less than 5 μm in diameter” value in data set [3] (after fifth milling cycle) is listed as “approximately 75%”. Further, the D10 in data set [3] (milling cycle 0) is 3.77 μm; in data set [3] (milling cycle 1) it was 2.22 μm; in data set [3] (milling cycle 3), 1.44 μm; in data set [3] (milling cycle 5) it was 1.59 μm. The D50 in data set [3] (milling cycle 0) is 50.21 μm; in data set [3] (milling cycle 1) it was 7.01 μm; in data set [3] (milling cycle 3), 3.99 μm; in data set [3] (milling cycle 5), 3.79 μm. For the same molecule, the D90 in data set [3] (milling cycle 0) is recorded as 445.02 μm; in data set [3] (milling cycle 1), 20.59 μm; in data set [3] (milling cycle 3), 9.90 μm; in data set [3] (milling cycle 5) it was 8.13 μm.

The values above are taken from patent publication US9918971B2, “Aerosol formulations of granisetron and uses thereof” (LUXENA PHARMACEUTICALS, INC., priority 2013, dated 2018).
